The text below walks through data of patent US8658646B2, “Pyrrolopyrazine kinase inhibitors” (Hoffmann-LaRoche Inc., priority 2011, dated 2014).

The target of the assay is T1, recombinant human SYK360-635 (Homo sapiens, UniProt P43405).
T1 construct: made in house
Kind of assay: Determination of IC50 of Spleen Tyrosine Kinase (SYK) inhibition, 33P ATP filtration assay. It counts as biochemical. Conditions: SYK aa 360-635 0.5 nM, ATP 20 μM, peptide 5 μM, 0.1% BSA.

Setting [1] is: read-out: SYK_ENZYME_FILTRATION/v1, BSA.

Where a name gives a salt, the structure may show the parent alone. Read-outs that look alike come from different tables or passages of the source.

Turning to `Cn1nc(-c2cnc3[nH]cc(C(=O)NC4(C(C)(C)O)CCC4)c3n2)c2ccc(F)cc21` [Example I-255, 2-(6-Fluoro-1-methyl-1H-indazol-3-yl)-5H-pyrrolo[2,3-b]pyrazine-7-carboxylic acid [1-(1-hydroxy-1-methyl-ethyl)-cyclobutyl]-amide], under setting [1], the IC50 is 607 nM.
In the case of `Cc1ccc2c(-c3cnc4[nH]cc(C(=O)NC(C)(C)CO)c4n3)nn(CC(=O)N3CCOCC3)c2c1` [Example I-439, 2-[6-Methyl-1-(2-morpholin-4-yl-2-oxo-ethyl)-1H-indazol-3-yl]-5H-pyrrolo[2,3-b]pyrazine-7-carboxylic acid (2-hydroxy-1,1-dimethyl-ethyl)-amide], the IC50 under setting [1] was 9.7 nM.
On to `CC(C)(C)NC(=O)c1c[nH]c2ncc(-n3ncc4ccc(F)cc43)nc12` [Example I-332, 2-(6-Fluoro-indazol-1-yl)-5H-pyrrolo[2,3-b]pyrazine-7-carboxylic acid tert-butylamide], for which the IC50 under setting [1] is 107 nM.
`CC(C)(C)NC(=O)c1c[nH]c2ncc(-n3ncc4cc(C(F)(F)F)ccc43)nc12` [Example I-337, 2-(5-Trifluoromethyl-indazol-1-yl)-5H-pyrrolo[2,3-b]pyrazine-7-carboxylic acid tert-butylamide]: the IC50 under setting [1] amounted to 595 nM.
The same measure, in the same setting: under `Cc1cccc2c(-c3cnc4[nH]cc(C(=O)NC(C)(C)C)c4n3)n[nH]c12` [Example I-369, 2-(7-Methyl-1H-indazol-3-yl)-5H-pyrrolo[2,3-b]pyrazine-7-carboxylic acid tert-butylamide] stands 8 nM.
Still for that read-out and setting: under `C#CC(C)(C)NC(=O)c1c[nH]c2ncc(-c3nn(C)c4cc(F)ccc34)nc12` [Example I-380, 2-(6-Fluoro-1-methyl-1H-indazol-3-yl)-5H-pyrrolo[2,3-b]pyrazine-7-carboxylic acid (1,1-dimethyl-prop-2-ynyl)-amide] stands 9.95 nM; under `COC(=O)c1cnc([C@H](C)NC(=O)c2c[nH]c3ncc(-c4nn(C)c5cc(F)ccc45)nc23)[nH]1` [Example I-359, 2-((S)-1-{[2-(6-Fluoro-1-methyl-1H-indazol-3-yl)-5H-pyrrolo[2,3-b]pyrazine-7-carbonyl]-amino}-ethyl)-3H-imidazole-4-carboxylic acid methyl ester], 112 nM.
The same measure, in the same setting: under `CN(C)CCCn1nc(-c2cnc3[nH]cc(C(=O)NC4(C)CC4)c3n2)c2cc(OC(F)F)ccc21` [Example I-452, 2-(5-(Difluoromethoxy)-1-(3-(dimethylamino)propyl)-1H-indazol-3-yl)-N-(1-methylcyclopropyl)-5H-pyrrolo[3,2-b]pyrazine-7-carboxamide trifluoroacetate] stands 13.9 nM; under `Cn1nc(-c2cnc3[nH]cc(C(=O)N[C@H]4C[C@@H](N)C4)c3n2)c2ccc(F)cc21` [Example I-271, 2-(6-Fluoro-1-methyl-1H-indazol-3-yl)-5H-pyrrolo[2,3-b]pyrazine-7-carboxylic acid (cis-3-amino-cyclobutyl)-amide], 30.3 nM.
`CC(CC1CC1)NC(=O)c1c[nH]c2ncc(-c3nn(C)c4cc(F)ccc34)nc12` (stereo not shown) [Example I-186, 2-(6-Fluoro-1-methyl-1H-indazol-3-yl)-5H-pyrrolo[2,3-b]pyrazine-7-carboxylic acid (2-cyclopropyl-1-methyl-ethyl)-amide]: under setting [1], the IC50 is 129 nM.
Regarding `Cn1nc(-c2cnc3[nH]cc(C(=O)NC4CCCC(NC(=O)OC(C)(C)C)C4)c3n2)c2ccc(Cl)cc21` (stereo not shown) [Example I-442, (3-{[2-(6-Chloro-1-methyl-1H-indazol-3-yl)-5H-pyrrolo[2,3-b]pyrazine-7-carbonyl]-amino}-cyclohexyl)-carbamic acid tert-butyl ester], under setting [1], the IC50 is 879 nM.
Same read-out and setting: under `C[C@@H](NC(=O)c1c[nH]c2ncc(-c3cn(C)c4cc(Cl)ccc34)nc12)C(=O)N1CC(C#N)C1` [Example I-29, 2-(6-Chloro-1-methyl-1H-indol-3-yl)-5H-pyrrolo[2,3-b]pyrazine-7-carboxylic acid [(R)-2-(3-cyano-azetidin-1-yl)-1-methyl-2-oxo-ethyl]-amide] stands 4.1 nM; under `Cn1nc(-c2cnc3[nH]cc(C(=O)NC(C)(C)C)c3n2)c2cc(C#N)ccc21` [Example I-260, 2-(5-Cyano-1-methyl-1H-indazol-3-yl)-5H-pyrrolo[2,3-b]pyrazine-7-carboxylic acid tert-butylamide], 6.85 nM; under `CC(C)(C)NC(=O)c1c[nH]c2ncc(-c3nn(CCCN4CC(O)C4)c4ccc(OC(F)F)cc34)nc12` [Example I-300, 2-{5-Difluoromethoxy-1-[3-(3-hydroxy-azetidin-1-yl)-propyl]-1H-indazol-3-yl}-5H-pyrrolo[2,3-b]pyrazine-7-carboxylic acid tert-butylamide], 3.1 nM.
On the same count and under the same terms, the result for `Cn1ncc2c(-c3cnc4[nH]cc(C(=O)NC(C)(C)C)c4n3)cccc21` [Example I-451, N-tert-Butyl-2-(1-methyl-1H-indazol-4-yl)-5H-pyrrolo[3,2-b]pyrazine-7-carboxamide hydrochloride] reads 4.8 nM.
On the same count and under the same terms, the result for `CONC(=O)c1c[nH]c2ncc(-c3nn(C)c4cc(F)ccc34)nc12` [Example I-361, 2-(6-Fluoro-1-methyl-1H-indazol-3-yl)-5H-pyrrolo[2,3-b]pyrazine-7-carboxylic acid methoxy-amide] reads 214 nM.
Take `CC(C)c1ccc2c(c1)c(-c1cnc3[nH]cc(C(=O)NC(C)(C)C)c3n1)nn2C` [Example I-458, N-tert-Butyl-2-(5-isopropyl-1-methyl-1H-indazol-3-yl)-5H-pyrrolo[2,3-b]pyrazine-7-carboxamide]: the IC50 under setting [1] amounted to 15.1 nM.
Same read-out and setting: the result for `CC(C)(CO)NC(=O)c1c[nH]c2ncc(-n3ncc4ccccc43)nc12` [Example I-321, 2-Indazol-1-yl-5H-pyrrolo[2,3-b]pyrazine-7-carboxylic acid (2-hydroxy-1,1-dimethyl-ethyl)-amide] reads 150 nM.
Same read-out and setting: the result for `CC(C)(C)NC(=O)c1c[nH]c2ncc(-c3nn(CCCC(=O)O)c4ccc(OC(F)F)cc34)nc12` [Example I-262, 4-[3-(7-tert-Butylcarbamoyl-5H-pyrrolo[2,3-b]pyrazin-2-yl)-5-difluoromethoxy-indazol-1-yl]-butyric acid] reads 2.75 nM.
`CC(C)(CO)NC(=O)c1c[nH]c2ncc(-n3nc(C4CCNCC4)c4ccccc43)nc12` [Example I-347, 2-(3-Piperidin-4-yl-indazol-1-yl)-5H-pyrrolo[2,3-b]pyrazine-7-carboxylic acid (2-hydroxy-1,1-dimethyl-ethyl)-amide]: where the note is “SYK_ENZYME_FILTRATION/v1, BSA”, the IC50 was found to be 14.3 nM.
`Cn1nc(-c2cnc3[nH]cc(C(=O)NC(C)(C)c4ccccc4)c3n2)c2ccc(Cl)cc21` [Example I-388, 2-(6-Chloro-1-methyl-1H-indazol-3-yl)-5H-pyrrolo[2,3-b]pyrazine-7-carboxylic acid (1-methyl-1-phenyl-ethyl)-amide]: the IC50 under setting [1] stood at 63.8 nM.
For `CC(O)CCn1nc(-c2cnc3[nH]cc(C(=O)NC(C)(C)CO)c3n2)c2ccc(F)cc21` (stereo not shown) [Example I-462, 2-(6-Fluoro-1-(3-hydroxybutyl)-1H-indazol-3-yl)-N-(1-hydroxy-2-methylpropan-2-yl)-5H-pyrrolo[3,2-b]pyrazine-7-carboxamide], the IC50 under setting [1] is 17.6 nM.
The same measure, in the same setting: under `Cc1cc2cccc(-c3cnc4[nH]cc(C(=O)NC(C)(C)C)c4n3)c2[nH]1` [Example I-303, 2-(2-Methyl-1H-indol-7-yl)-5H-pyrrolo[2,3-b]pyrazine-7-carboxylic acid tert-butylamide] stands 64.1 nM; under `CC(C)(C)NC(=O)c1c[nH]c2ncc(-n3nc(Cl)c4ccccc43)nc12` [Example I-335, 2-(3-Chloro-indazol-1-yl)-5H-pyrrolo[2,3-b]pyrazine-7-carboxylic acid tert-butylamide], 61.6 nM; under `Cc1ccc2c(-c3cnc4[nH]cc(C(=O)NC5(CO)CC5)c4n3)n[nH]c2c1` [Example I-432, 2-(6-Methyl-1H-indazol-3-yl)-5H-pyrrolo[2,3-b]pyrazine-7-carboxylic acid (1-hydroxymethyl-cyclopropyl)-amide], 5.6 nM.
On to `CNCCCn1nc(-c2cnc3[nH]cc(C(=O)NC(C)(C)C)c3n2)c2cc(OC(F)F)ccc21` [Example I-345, 2-[5-Difluoromethoxy-1-(3-methylamino-propyl)-1H-indazol-3-yl]-5H-pyrrolo[2,3-b]pyrazine-7-carboxylic acid tert-butylamide], for which the IC50 under setting [1] came to 5.12 nM.
With `Cn1nc(-c2cnc3[nH]cc(C(=O)NC(C)(C)CO)c3n2)c2ccc(C#N)cc21` [Example I-398, 2-(6-Cyano-1-methyl-1H-indazol-3-yl)-5H-pyrrolo[2,3-b]pyrazine-7-carboxylic acid (2-hydroxy-1,1-dimethyl-ethyl)-amide], the IC50 under setting [1] was determined as 12.2 nM.
As to `CN1CCOC(Cn2nc(-c3cnc4[nH]cc(C(=O)NC(C)(C)C)c4n3)c3cc(OC(F)F)ccc32)C1` (stereo not shown) [Example I-342, 2-[5-Difluoromethoxy-1-(4-methyl-morpholin-2-ylmethyl)-1H-indazol-3-yl]-5H-pyrrolo[2,3-b]pyrazine-7-carboxylic acid tert-butylamide], under setting [1], the IC50 is 17.2 nM.
On to `Cn1nc(-c2cnc3[nH]cc(C(=O)NC(C)(C)C)c3n2)c2c1CCCCC2` [Example I-272, 2-(1-Methyl-1,4,5,6,7,8-hexahydro-cycloheptapyrazol-3-yl)-5H-pyrrolo[2,3-b]pyrazine-7-carboxylic acid tert-butylamide], for which the IC50 under setting [1] worked out at 75.3 nM.
The same measure, in the same setting: under `C[C@H](NC(=O)c1c[nH]c2ncc(-c3nn(C)c4cc(Cl)ccc34)nc12)c1ccccc1` [Example I-389, 2-(6-Chloro-1-methyl-1H-indazol-3-yl)-5H-pyrrolo[2,3-b]pyrazine-7 carboxylic acid ((S)-1-phenyl-ethyl)-amide] stands 183 nM.
As to `CC(C)(C)NC(=O)c1c[nH]c2ncc(-n3ncc4cc(F)c(F)cc43)nc12` [Example I-327, 2-(5,6-Difluoro-indazol-1-yl)-5H-pyrrolo[2,3-b]pyrazine-7-carboxylic acid tert-butylamide], the IC50 under setting [1] worked out at 221 nM.
